By inhibition is commonly meant how much of the control response was suppressed.

Drawing on patent US9062066B2, “Anti-inflammatory compound having inhibitory activity against multiple tyrosine kinases and pharmaceutical composition containing same” (KOREA INSTITUTE OF SCIENCE AND TECHNOLOGY, priority 2010, dated 2015), this text covers inhibition for 22 compounds.

What all share (assay type): biochemical
One test has as its target Lyn tyrosine kinase (Homo sapiens (Human), UniProt P07948). Put plainly: in vitro Lyn tyrosine kinase inhibition. To be noted: 1 uM compound; read-out: % inhibition against Lyn.
The target in the next test is DDR2 tyrosine kinase (Homo sapiens (Human), UniProt Q16832). Put plainly: in vitro DDR2 tyrosine kinase inhibition (GST-fused kinase domain). The following applies: 1 uM compound; read-out: % inhibition against DDR2.
The target in the next test is DDR1 tyrosine kinase (Homo sapiens (Human), UniProt Q08345). Put plainly: in vitro DDR1 tyrosine kinase inhibition (GST-fused kinase domain). To be noted: 1 uM compound; read-out: % inhibition against DDR1.
The target of another test is Fgr tyrosine kinase (Homo sapiens (Human), UniProt P09769). Put plainly: in vitro Fgr tyrosine kinase inhibition. To be noted: 1 uM compound; read-out: % inhibition against Fgr.
The target in a further test is c-Src tyrosine kinase (Homo sapiens (Human), UniProt P12931). Put plainly: in vitro c-Src tyrosine kinase inhibition (32P-ATP, poly(D4Y)n substrate). The following applies: 1 uM compound; read-out: % inhibition against c-Src.
For the next test, the target named is Hck tyrosine kinase (Homo sapiens (Human), UniProt P08631). The experiment in a line: in vitro Hck tyrosine kinase inhibition. To be noted: 1 uM compound; read-out: % inhibition against Hck.
Hck tyrosine kinase, sequence (P08631 whole entry): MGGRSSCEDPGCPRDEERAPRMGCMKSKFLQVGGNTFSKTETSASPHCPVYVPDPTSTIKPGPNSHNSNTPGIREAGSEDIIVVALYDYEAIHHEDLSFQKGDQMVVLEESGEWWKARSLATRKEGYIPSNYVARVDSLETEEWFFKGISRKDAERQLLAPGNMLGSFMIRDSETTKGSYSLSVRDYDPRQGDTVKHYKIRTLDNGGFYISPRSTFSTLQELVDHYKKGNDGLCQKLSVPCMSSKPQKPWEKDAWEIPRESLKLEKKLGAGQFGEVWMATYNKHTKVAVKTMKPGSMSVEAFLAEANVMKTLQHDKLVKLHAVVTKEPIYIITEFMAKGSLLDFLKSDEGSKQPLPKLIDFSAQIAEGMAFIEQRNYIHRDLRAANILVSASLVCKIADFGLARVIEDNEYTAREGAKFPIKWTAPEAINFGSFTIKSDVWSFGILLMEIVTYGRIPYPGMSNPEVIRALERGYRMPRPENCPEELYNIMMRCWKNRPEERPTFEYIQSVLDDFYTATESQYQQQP

DDR1 tyrosine kinase, sequence (Q08345 610-905): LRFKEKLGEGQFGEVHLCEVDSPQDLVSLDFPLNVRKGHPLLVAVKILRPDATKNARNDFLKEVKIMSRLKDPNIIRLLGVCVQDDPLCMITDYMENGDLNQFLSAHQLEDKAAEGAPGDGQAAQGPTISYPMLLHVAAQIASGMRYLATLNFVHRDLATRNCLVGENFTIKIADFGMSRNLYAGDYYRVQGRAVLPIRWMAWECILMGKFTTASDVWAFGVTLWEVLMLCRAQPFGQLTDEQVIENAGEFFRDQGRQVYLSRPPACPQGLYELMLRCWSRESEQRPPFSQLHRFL
Lyn tyrosine kinase, sequence (P07948 whole entry, the tested form may be a part): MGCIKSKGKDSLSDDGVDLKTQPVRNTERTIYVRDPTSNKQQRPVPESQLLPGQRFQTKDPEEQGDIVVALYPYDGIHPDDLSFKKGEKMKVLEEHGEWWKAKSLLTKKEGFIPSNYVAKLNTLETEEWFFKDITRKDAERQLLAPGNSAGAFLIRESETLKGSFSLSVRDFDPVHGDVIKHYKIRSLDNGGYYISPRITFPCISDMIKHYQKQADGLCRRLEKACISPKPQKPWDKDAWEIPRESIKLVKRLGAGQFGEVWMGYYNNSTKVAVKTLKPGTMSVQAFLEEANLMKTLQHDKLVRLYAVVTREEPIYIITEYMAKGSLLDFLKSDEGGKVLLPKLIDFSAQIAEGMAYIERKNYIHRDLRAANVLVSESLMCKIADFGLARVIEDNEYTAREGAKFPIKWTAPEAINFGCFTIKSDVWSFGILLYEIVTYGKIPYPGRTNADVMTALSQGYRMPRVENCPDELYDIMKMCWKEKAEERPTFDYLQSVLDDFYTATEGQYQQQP
Fgr tyrosine kinase, sequence (P09769 whole entry): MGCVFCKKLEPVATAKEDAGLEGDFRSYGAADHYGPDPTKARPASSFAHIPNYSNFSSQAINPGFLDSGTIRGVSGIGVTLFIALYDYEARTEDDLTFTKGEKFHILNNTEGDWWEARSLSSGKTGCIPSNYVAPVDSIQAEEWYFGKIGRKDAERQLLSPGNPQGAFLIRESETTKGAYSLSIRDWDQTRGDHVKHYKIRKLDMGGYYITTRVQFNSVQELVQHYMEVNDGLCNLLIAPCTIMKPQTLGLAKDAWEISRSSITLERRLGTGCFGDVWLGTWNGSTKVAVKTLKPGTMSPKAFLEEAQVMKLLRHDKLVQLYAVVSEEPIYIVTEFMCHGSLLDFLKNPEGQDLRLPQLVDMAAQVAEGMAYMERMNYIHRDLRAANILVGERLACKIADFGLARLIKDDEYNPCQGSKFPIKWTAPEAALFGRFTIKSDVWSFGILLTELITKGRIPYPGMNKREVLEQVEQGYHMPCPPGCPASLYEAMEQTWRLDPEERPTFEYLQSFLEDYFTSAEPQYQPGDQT
DDR2 tyrosine kinase, sequence (Q16832 563-849): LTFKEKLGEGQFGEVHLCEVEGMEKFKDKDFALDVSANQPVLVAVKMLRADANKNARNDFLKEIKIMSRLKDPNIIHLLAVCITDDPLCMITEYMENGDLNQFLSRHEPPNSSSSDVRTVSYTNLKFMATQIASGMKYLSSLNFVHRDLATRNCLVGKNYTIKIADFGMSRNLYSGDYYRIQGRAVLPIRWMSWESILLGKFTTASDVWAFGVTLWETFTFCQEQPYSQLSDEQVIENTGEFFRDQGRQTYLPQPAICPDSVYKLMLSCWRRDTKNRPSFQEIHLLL
c-Src tyrosine kinase, sequence (P12931 whole entry, looked up): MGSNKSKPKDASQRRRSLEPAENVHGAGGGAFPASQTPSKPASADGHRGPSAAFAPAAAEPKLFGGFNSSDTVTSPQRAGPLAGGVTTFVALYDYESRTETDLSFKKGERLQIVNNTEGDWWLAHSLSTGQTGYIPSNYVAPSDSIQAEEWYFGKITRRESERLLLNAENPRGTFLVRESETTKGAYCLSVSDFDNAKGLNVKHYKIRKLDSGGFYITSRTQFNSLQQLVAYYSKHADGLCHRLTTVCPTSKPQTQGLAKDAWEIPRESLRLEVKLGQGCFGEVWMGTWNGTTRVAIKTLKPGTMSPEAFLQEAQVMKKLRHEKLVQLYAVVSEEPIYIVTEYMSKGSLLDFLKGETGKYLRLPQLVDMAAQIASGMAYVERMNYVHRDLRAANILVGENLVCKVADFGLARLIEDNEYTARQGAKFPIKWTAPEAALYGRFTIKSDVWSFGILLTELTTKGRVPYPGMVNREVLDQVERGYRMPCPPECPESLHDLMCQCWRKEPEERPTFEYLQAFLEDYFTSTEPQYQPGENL

As to `N#Cc1ccc(-c2cc3ncnc(Nc4cccc(O)c4)c3s2)cc1` [LCB 03-0013, 4-(4-(3-hydroxyphenylamino)thieno[3,2-d]pyrimidin-6-yl)benzonitrile], the inhibition at 1 µM was more than 70% on Lyn tyrosine kinase; more than 60% at DDR2 tyrosine kinase; more than 60% at DDR1 tyrosine kinase; more than 60% at Fgr tyrosine kinase; more than 70% at c-Src tyrosine kinase; more than 70% on Hck tyrosine kinase.

Turning to `COc1cccc(Nc2ncnc3cc(-c4ccc(O)cc4)sc23)c1` [LCB 03-0016, 4-(4-(3-methoxyphenylamino)thieno[3,2-d]pyrimidin-6-yl)phenol], the inhibition at 1 µM is more than 70% on Lyn tyrosine kinase; more than 20% on DDR2 tyrosine kinase; more than 20% at DDR1 tyrosine kinase; more than 70% on Fgr tyrosine kinase; more than 70% on c-Src tyrosine kinase; more than 70% on Hck tyrosine kinase.

Turning to `Oc1cccc(Nc2ncnc3cc(-c4ccc(Cl)cc4)sc23)c1` [LCB 03-0019, 3-(6-(4-chlorophenyl)thieno[3,2-d]pyrimidin-4-ylamino)phenol], the inhibition at 1 µM is more than 60% at Lyn tyrosine kinase; more than 70% on DDR2 tyrosine kinase; more than 70% at DDR1 tyrosine kinase; more than 60% at Fgr tyrosine kinase; more than 60% on c-Src tyrosine kinase; more than 60% at Hck tyrosine kinase.

As to `Oc1cccc(Nc2ncnc3cc(-c4ccc(OCCN5CCOCC5)cc4)sc23)c1` [LCB 03-0020, 3-(6-(4-(2-morpholinoethoxy)phenyl)thieno[3,2-d]pyrimidin-4-ylamino)phenol], the inhibition at 1 µM at Lyn tyrosine kinase is more than 70%; at DDR2 tyrosine kinase, more than 60%; at DDR1 tyrosine kinase, more than 60%; at Fgr tyrosine kinase, more than 70%; at c-Src tyrosine kinase, more than 70%; on Hck tyrosine kinase it was more than 70%.

As for `COc1cccc(Nc2ncnc3cc(-c4ccc(OCCc5ccccc5)cc4)sc23)c1` [LCB 03-0021, N-(3-methoxyphenyl)-6-(4-phenethoxyphenyl)thieno[3,2-d]pyrimidin-4-amine], the inhibition at 1 µM at Lyn tyrosine kinase is more than 60%; at DDR2 tyrosine kinase, more than 30%; at DDR1 tyrosine kinase, more than 30%; at Fgr tyrosine kinase it was more than 60%; at c-Src tyrosine kinase it was more than 50%; on Hck tyrosine kinase, more than 60%.

Take `COc1cccc(Nc2ncnc3cc(-c4ccc(OCCc5ccccn5)cc4)sc23)c1` [LCB 03-0022, N-(3-methoxyphenyl)-6-(4-(2-(pyridin-2-yl)ethoxy)phenyl)thieno[3,2-d]pyrimidin-4-amine]: the inhibition at 1 µM was more than 60% at Lyn tyrosine kinase; more than 10% on DDR2 tyrosine kinase; more than 10% at DDR1 tyrosine kinase; more than 60% on Fgr tyrosine kinase; more than 60% at c-Src tyrosine kinase; more than 60% at Hck tyrosine kinase.

Take `COc1cccc(Nc2ncnc3cc(-c4ccco4)sc23)c1` [LCB 03-0023, (6-Furan-2-yl-thieno[3,2-d]pyrimidin-4-yl)-(3-methoxyphenyl)-amine]: the inhibition at 1 µM is more than 40% at Lyn tyrosine kinase; more than 60% at DDR2 tyrosine kinase; more than 60% on DDR1 tyrosine kinase; more than 40% at Fgr tyrosine kinase; more than 40% on c-Src tyrosine kinase; more than 40% on Hck tyrosine kinase.

As for `COc1cccc(Nc2ncnc3cc(-c4ccoc4)sc23)c1` [LCB 03-0024, (6-Furan-3-yl-thieno[3,2-d]pyrimidin-4-yl)-(3-methoxyphenyl)-amine], the inhibition at 1 µM is more than 30% on Lyn tyrosine kinase; more than 70% on DDR2 tyrosine kinase; more than 70% on DDR1 tyrosine kinase; more than 30% at Fgr tyrosine kinase; more than 30% on c-Src tyrosine kinase; more than 30% at Hck tyrosine kinase.

Take `COc1cccc(Nc2ncnc3cc(-c4ccc(OCCN5CCCC5)cc4)sc23)c1` [LCB 03-0026, N-(3-methoxyphenyl)-6-(4-(2-(pyrrolidin-1-yl)ethoxy)phenyl)thieno[3,2-d]pyrimidin-4-amine]: the inhibition at 1 µM on Lyn tyrosine kinase is more than 40%; at DDR2 tyrosine kinase, more than 20%; at DDR1 tyrosine kinase it was more than 20%; at Fgr tyrosine kinase, more than 60%; at c-Src tyrosine kinase it was more than 60%; on Hck tyrosine kinase it was more than 60%.

For `COc1cccc(Nc2ncnc3cc(-c4cccs4)sc23)c1` [LCB 03-0027, N-(3-methoxyphenyl)-6-(thiophene-2-yl)thieno[3,2-d]pyrimidin-4-amine], the inhibition at 1 µM on Lyn tyrosine kinase was more than 40%; at DDR2 tyrosine kinase, more than 70%; at DDR1 tyrosine kinase it was more than 70%; on Fgr tyrosine kinase it was more than 40%; on c-Src tyrosine kinase, more than 40%; at Hck tyrosine kinase it was more than 40%.

Consider `COc1cccc(Nc2ncnc3cc(-c4ccsc4)sc23)c1` [LCB 03-0028, (3-Methoxyphenyl)-(6-thiophene-3-yl-thieno[3,2-d]pyrimidin-4-yl)-amine], for which the inhibition at 1 µM on Lyn tyrosine kinase is more than 30%; on DDR2 tyrosine kinase, more than 50%; on DDR1 tyrosine kinase, more than 50%; at Fgr tyrosine kinase, more than 30%; at c-Src tyrosine kinase, more than 30%; at Hck tyrosine kinase it was more than 30%.

`COc1cccc(Nc2ncnc3cc(-c4ccc(OCCN5CCNCC5)cc4)sc23)c1` [LCB 03-0029, N-(3-methoxyphenyl)-6-(4-(2-(piperazin-1-yl)ethoxy)phenyl)thieno[3,2-d]pyrimidin-4-amine]: the inhibition at 1 µM on Lyn tyrosine kinase was more than 60%; at DDR2 tyrosine kinase, more than 20%; on DDR1 tyrosine kinase, more than 20%; at Fgr tyrosine kinase, more than 60%; on c-Src tyrosine kinase, more than 60%; at Hck tyrosine kinase, more than 60%.

In the case of `Oc1cccc(Nc2ncnc3cc(-c4ccsc4)sc23)c1` [LCB 03-0031, 3-(6-Thiophene-3-yl-thieno[3,2-d]pyrimidin-4-ylamino)-phenol], the inhibition at 1 µM is more than 30% at Lyn tyrosine kinase; more than 70% at DDR2 tyrosine kinase; more than 70% on DDR1 tyrosine kinase; more than 40% at Fgr tyrosine kinase; more than 40% on c-Src tyrosine kinase; more than 40% at Hck tyrosine kinase.

With `Oc1cccc(Nc2ncnc3cc(-c4ccc(CCN5CCCCC5)cc4)sc23)c1` [LCB 03-0044], the inhibition at 1 µM on Lyn tyrosine kinase is more than 30%; at DDR2 tyrosine kinase, more than 80%; at DDR1 tyrosine kinase it was more than 80%; on Fgr tyrosine kinase it was more than 30%; at c-Src tyrosine kinase, more than 30%; on Hck tyrosine kinase, more than 30%.

Turning to `CN1CCN(CCc2ccc(-c3cc4ncnc(Nc5cccc(O)c5)c4s3)cc2)CC1` [LCB 03-0045], the inhibition at 1 µM on Lyn tyrosine kinase is more than 30%; on DDR2 tyrosine kinase, more than 80%; on DDR1 tyrosine kinase, more than 80%; at Fgr tyrosine kinase it was more than 20%; on c-Src tyrosine kinase, more than 30%; on Hck tyrosine kinase, more than 20%.

As for `Oc1cccc(Nc2ncnc3cc(-c4ccc(CCN5CCOCC5)cc4)sc23)c1` [LCB 03-0046, 3-(6-(4-(2-morpholinoethyl)phenyl)thieno[3,2-d]pyrimidin-4-ylamino)phenol], the inhibition at 1 µM on Lyn tyrosine kinase was more than 30%; on DDR2 tyrosine kinase, more than 80%; at DDR1 tyrosine kinase it was more than 80%; at Fgr tyrosine kinase, more than 30%; at c-Src tyrosine kinase, more than 30%; on Hck tyrosine kinase, more than 30%.

As for `CCN(CC)C(=O)Cc1ccc(-c2cc3ncnc(Nc4cccc(O)c4)c3s2)cc1` [LCB 03-0050, N,N-diethyl-2-(4-(4-(3-hydroxyphenylamino)thieno[3,2-d]pyrimidin-6-yl)phenyl)acetamide], the inhibition at 1 µM at Lyn tyrosine kinase is more than 40%; on DDR2 tyrosine kinase, more than 80%; on DDR1 tyrosine kinase, more than 80%; on Fgr tyrosine kinase it was more than 40%; at c-Src tyrosine kinase, more than 40%; on Hck tyrosine kinase it was more than 40%.

Consider `O=C(O)c1cccc(-c2cc3ncnc(Nc4cccc(O)c4)c3s2)c1` [LCB 03-0051, 3-(4-(3-hydroxyphenylamino)thieno[3,2-d]pyrimidin-6-yl)benzoic acid], for which the inhibition at 1 µM on DDR2 tyrosine kinase and on DDR1 tyrosine kinase was more than 80% in each case.

`CN1CCN(C(=O)c2ccc(-c3cc4ncnc(Nc5cccc(O)c5)c4s3)cc2)CC1` [LCB 03-0052, (4-(4-(3-hydroxyphenylamino)thieno[3,2-d]pyrimidin-6-yl)phenyl)(4-methylpiperazin-1-yl)methanone]: the inhibition at 1 µM was more than 60% at Lyn tyrosine kinase; more than 80% at DDR2 tyrosine kinase; more than 80% on DDR1 tyrosine kinase; more than 50% at Fgr tyrosine kinase; more than 60% at c-Src tyrosine kinase; more than 60% at Hck tyrosine kinase.

For the compound `CN1CCN(C(=O)c2cccc(-c3cc4ncnc(Nc5cccc(O)c5)c4s3)c2)CC1` [LCB 03-0055, (3-(4-(3-hydroxyphenylamino)thieno[3,2-d]pyrimidin-6-yl)phenyl)(4-methylpiperazin-1-yl)methanone], the inhibition at 1 µM at Lyn tyrosine kinase was more than 50%; on DDR2 tyrosine kinase, more than 80%; at DDR1 tyrosine kinase, more than 80%; on Fgr tyrosine kinase, more than 50%; on c-Src tyrosine kinase it was more than 50%; at Hck tyrosine kinase, more than 50%.

For `NC(=O)C1CCCN1Cc1ccc(-c2cc3ncnc(Nc4cccc(O)c4)c3s2)cc1` (stereo not drawn) [LCB 03-0068, 1-(4-(4-(3-hydroxyphenylamino)thieno[3,2-d]pyrimidin-6-yl)benzyl)pyrrolidine-2-carboxamide], the inhibition at 1 µM at DDR2 tyrosine kinase and at DDR1 tyrosine kinase was more than 80% each time.

Regarding `O=C(O)C1CCCN1Cc1ccc(-c2cc3ncnc(Nc4cccc(O)c4)c3s2)cc1` (stereo not drawn) [LCB 03-0069, 1-(4-(4-(3-hydroxyphenylamino)thieno[3,2-d]pyrimidin-6-yl)benzyl)pyrrolidine-2-carboxylic acid], the inhibition at 1 µM at DDR2 tyrosine kinase and on DDR1 tyrosine kinase was more than 50% in each case.
